Reference: patent US11820737B2, “Generation of peroxyhydroxycarboxylic acid and the use thereof” (ECOLAB USA INC., priority 2020, dated 2023)
“And” between values parts separate entries of the source, which are not always exact repeats. Equal entries are not always repeated.

Legend:
[1] = test system: Campylobacter jejuni ATCC 33291; assay: Food contact suspension test (FCS, AOAC 960.09); type: cell-based; conditions: for concentration required for efficacy: 75° F., FIG. 6; for Avg. Log10 Growth / Log10 Reduction: 30 second
Description: Antimicrobial Efficacy of Peroxylactic Acid. The antimicrobial efficacy of generated peroxylactic acid was evaluated following the US EPA food contact suspension test protocol (AOAC 960.09) against Staphylococcus aureus and Escherichia coli according to the conditions set forth in Table 7.
Additional efficacy testing against Campylobacter jejuni ATCC 33291 as described in Table 10 was completed to compare efficacy at 75° F. of lactic acid, peroxylactic acid (PLA) and peroxyacetic acid (PAA). […] In particular, in comparison to lactic acid substantially lower concentrations are required (25 ppm PLA instead of approximately 5000 ppm lactic acid).
Beneficially, the concentration of peroxylactic acid required for micro efficacy are substantially lower than lactic acid and the lactic acid which is formed upon degradation of the peroxylactic acid is further beneficial for micro efficacy.

[2] = test system: Salmonella, E. coli, Campylobacter and Listeria; assay: Food contact suspension test (AOAC 960.09), FIG. 7; type: cell-based; conditions: 30 seconds
Description: (§1) Additional antimicrobial efficacy of generated peroxylactic acid was evaluated following the US EPA food contact suspension test protocol (AOAC 960.09) against Salmonella, E. coli, Campylobacter and Listeria according to the conditions set forth in Table 16.
In addition at 100 ppm PLA provides efficacy of greater than 7 log reduction against Listeria, whereas peroxyacetic acid is known to require at least about 180 ppm for greater than 7 log reduction against Listeria.

[3] = Kinetic instability of peroxylactic acid generated through equilibrium reaction of lactic acid and hydrogen peroxide (FIG. 4); type: physicochemical; conditions: generated through equilibrium between lactic acid and H2O2, FIG. 4
Description: Comparison of Lactide Ester to Lactic Acid Precursor to Generate Peroxylactic Acid. The equilibrium reaction using lactic acid reagent for generating perlactic acid was performed to show the distinct advantages of the methods of generation according to the invention. […] It is also known that the reaction results in additional byproducts—which may not be suitable for various applications of use.
This makes it commercially not feasible to deliver the compositions for end application at customer locations.

[4] = test system: Listeria monocytogenes ATCC 49594; assay: Food contact suspension test (FCS, AOAC 960.09); type: cell-based; conditions: 30 second
Description: as §1

| SMILES | concentration required for efficacy [1] | low concentration dose providing efficacy against various microbes [2] [ppm] | stability of generated perlactic acid [3] | Avg. Log10 Growth ([4]; 50 ppm PLA) [Log10] | CFU/mL ([4]; 50 ppm PLA) | Log10 Growth ([4]; 50 ppm PLA) | Log10 Reduction ([4]; 50 ppm PLA) [Log10] | Avg. Log10 Growth ([4]; 100 ppm PLA) [Log10] | Log10 Reduction ([4]; 100 ppm PLA) [Log10] | Avg. Log10 Growth ([4]; 150 ppm PLA) [Log10] | Log10 Reduction ([4]; 150 ppm PLA) [Log10] | Avg. Log10 Growth ([1]; 25 ppm PLA) [Log10] | Log10 Reduction ([1]; 25 ppm PLA) [Log10] | Avg. Log10 Growth ([1]; 50 ppm PLA) [Log10] | Log10 Reduction ([1]; 50 ppm PLA) [Log10] | Avg. Log10 Growth ([1]; 75ppm PLA) [Log10] | Log10 Reduction ([1]; 75ppm PLA) [Log10] |
| --- | --- | --- | --- | --- | --- | --- | --- | --- | --- | --- | --- | --- | --- | --- | --- | --- | --- |
| CC(O)C(=O)O (stereo not drawn) [Lactic Acid, reference compound] | approximately 5000 ppm |  |  |  |  |  |  |  |  |  |  |  |  |  |  |  |  |
| CC(O)C(=O)OO (stereo not drawn) [PLA, peroxylactic acid] | 25 ppm | 25 | very unstable | 5.84 | 6.90E+05 CFU/mL and 6.80E+05 CFU/mL | 5.84 Log10 and 5.83 Log10 | 2.23 | <1.00 | >7.06 | <1.00 | >7.06 | <1.00 | >7.06 | <1.00 | >7.06 | <1.00 | >7.06 |
